SMILES strings stand for the structures. Converted amounts (≈) assume the structure as drawn. Like-named read-outs stand apart in the source and are kept apart here.

For one assay, the system named is Str. pneumoniae A-9585. As to the kind of experiment: MIC, tube dilution, Streptococcus pneumoniae A9585. Type of assay: cell-based. Conditions: overnight 37° C., Nutrient Broth; for MIC: Streptococcus pneumoniae, A9585, Str. pneumoniae A9585, read-out: Minimum Inhibitory Concentration (M.I.C.). An excerpt:
(§1) Representative compounds of the present invention were subjected to in vitro antibiotic screening against a variety of microorganisms.

The next assay concerns Str. pyogenes A-9604. As to the kind of experiment: MIC, tube dilution, Streptococcus pyogenes A9604. Type of assay: cell-based. Particulars: overnight 37° C., Nutrient Broth; for MIC: Streptococcus pyogenes, A9604, Str. pyogenes A9604, read-out: Minimum Inhibitory Concentration (M.I.C.).
Description: as §1

The next assay relates to Staph. aureus A-9537. As to the kind of experiment: MIC, tube dilution, Staphylococcus aureus A9537. Particulars: overnight 37° C., Nutrient Broth; for MIC: Staphylococcus aureus, A9537, Staph. aureus A9537, read-out: Minimum Inhibitory Concentration (M.I.C.). The assay is classed as cell-based.
Description: as §1

For assay [1], the system named is Staph. aureus A-9537 and 50% serum. As to the kind of experiment: MIC, tube dilution, Staph. aureus A9537 + 50% serum. Type of assay: cell-based, Staphylococcus aureus. Conditions: Staphylococcus aureus, overnight 37° C., read-out: Minimum Inhibitory Concentration (M.I.C.).
Description: as §1

For assay [2], the system named is Staph. aureus (Pen-Res) A-9606. Briefly: MIC, tube dilution, Staphylococcus aureus A9606 (Pen-Res). Conditions: Staphylococcus aureus, overnight 37° C. Type of assay: cell-based.
Description: as §1

Assay [3] concerns Staph. aureus (Meth-Res) A-15097. As to the kind of experiment: MIC, tube dilution, Staphylococcus aureus A15097 (Meth-Res). The assay is classed as cell-based. Particulars: Staphylococcus aureus, overnight 37° C.
Description: as §1

A further assay concerns Str. faecalis A-20688. Briefly: MIC, tube dilution, Streptococcus faecalis A20688. Conditions: Enterococcus faecalis, A20688, Str. faecalis A20688; overnight 37° C.; read-out: Minimum Inhibitory Concentration (M.I.C.). The assay is classed as cell-based.
Description: as §1

A further assay has as its system E. coli A-15119. As to the kind of experiment: MIC, tube dilution, Escherichia coli A15119. Type of assay: cell-based. Particulars: Escherichia coli, A15119, E. coli A15119; overnight 37° C.; read-out: Minimum Inhibitory Concentration (M.I.C.).
Description: as §1

The subject of the next assay is E. coli A-20341-1. Briefly: MIC, tube dilution, Escherichia coli A20341-1. Conditions: Escherichia coli, A203411; E. coli A20341-1; overnight 37° C.; read-out: Minimum Inhibitory Concentration (M.I.C.). Type of assay: cell-based.
Description: as §1

The next assay has as its system K. pneumoniae A-15130. As to the kind of experiment: MIC, tube dilution, Klebsiella pneumoniae A15130. Type of assay: cell-based. Conditions: Klebsiella pneumoniae, A15130, K. pneumoniae A15130; overnight 37° C.; read-out: Minimum Inhibitory Concentration (M.I.C.).
Description: as §1

Assay [4] deals with Klebsiella species A20468. As to the kind of experiment: MIC, tube dilution, Klebsiella species A20468. Type of assay: cell-based. Conditions: Klebsiella species (K. pneumoniae) A20468; overnight 37° C.; read-out: Minimum Inhibitory Concentration (M.I.C.).
Description: as §1

The test system of another assay is Pr. mirabilis A-9900. Briefly: MIC, tube dilution, Proteus mirabilis A9900. The assay is classed as cell-based. Conditions: Proteus mirabilis, A9900, Proteus mirabilis A9900; overnight 37° C.; read-out: Minimum Inhibitory Concentration (M.I.C.).
Description: as §1

The subject of a further assay is Pr. vulgaris A-9716. Briefly: MIC, tube dilution, Proteus vulgaris / Proteus mirabilis A9716. The assay is classed as cell-based, Proteus vulgaris (name changed to Proteus mirabilis). Particulars: Proteus vulgaris, overnight 37° C.
Description: as §1

Another assay has as its system Pr. morganii A-15153. Briefly: MIC, tube dilution, Proteus morganii A15153. Conditions: Morganella morganii, A15153, Proteus morganii A15153; overnight 37° C.; read-out: Minimum Inhibitory Concentration (M.I.C.). Type of assay: cell-based.
Description: as §1

The next assay deals with Ser. marcescens A-20019. Briefly: MIC, tube dilution, Serratia marcescens A20019. The assay is classed as cell-based. Conditions: Serratia marcescens, A20019, Serratia marcescens A20019; overnight 37° C.; read-out: Minimum Inhibitory Concentration (M.I.C.).
Description: as §1

The test system of the next assay is Ent. cloacae A-9659. As to the kind of experiment: MIC, tube dilution, Enterobacter cloacae A9659. Type of assay: cell-based. Conditions: Enterobacter cloacae, A9659, Enterobacter cloacae A9659; overnight 37° C.; read-out: Minimum Inhibitory Concentration (M.I.C.).
Description: as §1

In another assay the test system is Ent. cloacae A-9656. Briefly: MIC, tube dilution, Enterobacter cloacae A9656. Type of assay: cell-based. Particulars: overnight 37° C., read-out: Minimum Inhibitory Concentration (M.I.C.).
Description: as §1

A further assay concerns Ps. aeruginosa A-9843A. As to the kind of experiment: MIC, tube dilution, Pseudomonas aeruginosa A9843A. The assay is classed as cell-based. Conditions: Pseudomonas aeruginosa, A9843A, read-out: Minimum Inhibitory Concentration (M.I.C.), Pseudomonas aeruginosa A9843A; overnight 37° C.
Description: as §1

In another assay the test system is Ps. aeruginosa A-21213. Briefly: MIC, tube dilution, Pseudomonas aeruginosa A21213. Particulars: Pseudomonas aeruginosa A21213; overnight 37° C.; read-out: Minimum Inhibitory Concentration (M.I.C.). Type of assay: cell-based.
Description: as §1

In another assay the test system is Proteus rettgeri A21203. As to the kind of experiment: MIC, tube dilution, Proteus rettgeri A21203. The assay is classed as cell-based. Conditions: Providencia rettgeri, overnight 37° C., read-out: Minimum Inhibitory Concentration (M.I.C.).
Description: as §1

The mark [5] stands for this setting: Staph. aureus A9606 (Pen-Res), read-out: Minimum Inhibitory Concentration (M.I.C.).
The mark [6] stands for this setting: read-out: Minimum Inhibitory Concentration (M.I.C.), Staph. aureus A15097 (Meth-Res).
The mark [7] stands for this setting: A9716, Proteus vulgaris / Proteus mirabilis A9716, read-out: Minimum Inhibitory Concentration (M.I.C.).
Where [8] appears, read: Enterobacter cloacae, A9656, Enterobacter cloacae A9656.
Setting [9] is: A21203, Proteus rettgeri A21203.
Setting [10] is: read-out: Minimum Inhibitory Concentration (M.I.C.), Staph. aureus A9606 (Pen-Res).
Setting [11] is: A9716, read-out: Minimum Inhibitory Concentration (M.I.C.), Proteus vulgaris / Proteus mirabilis A9716.

On to `O=C(O)C1=C(C2CCC2)SC2CC(=O)N12` (centres unmarked) [Example 21, 2-Cyclobutylpenem-3-carboxylic Acid], for which the MIC with Str. pneumoniae A-9585 is 0.13 µg/mL (≈ 0.577 µM); in the assay with Str. pyogenes A-9604 it was 1 µg/mL (≈ 4.44 µM); in the assay with Staph. aureus A-9537 it was 0.13 µg/mL (≈ 0.577 µM); in assay [1], above 63 µg/mL; in assay [2] (setting [5]), 8 µg/mL (≈ 35.5 µM); in [3] (setting [6]), above 125 µg/mL. In addition, the MIC with Str. faecalis A-20688 was 16 µg/mL (≈ 71 µM); in the assay on E. coli A-15119, 4 µg/mL (≈ 17.8 µM); in the assay on E. coli A-20341-1, 125 µg/mL (≈ 555 µM); in the assay with K. pneumoniae A-15130, 16 µg/mL (≈ 71 µM); in assay [4], above 125 µg/mL; in the assay on Pr. mirabilis A-9900 it was 2 µg/mL (≈ 8.88 µM). For the same compound, the MIC in the assay with Pr. vulgaris A-9716 (setting [7]) turned out to be 2 µg/mL (≈ 8.88 µM); with Pr. morganii A-15153, 16 µg/mL (≈ 71 µM); in the assay with Ser. marcescens A-20019, 16 µg/mL (≈ 71 µM); in the assay on Ent. cloacae A-9659, 16 µg/mL (≈ 71 µM); with Ent. cloacae A-9656 (setting [8]), 32 µg/mL (≈ 142 µM); in the assay on Ps. aeruginosa A-9843A, 125 µg/mL (≈ 555 µM). For the same compound, the MIC in the assay on Ps. aeruginosa A-21213 is 125 µg/mL (≈ 555 µM); in the assay on Proteus rettgeri A21203 (setting [9]) it was 4 µg/mL (≈ 17.8 µM).

In the case of `O=C([O-])C1=C(Cc2ccccc2)S[C@@H]2CC(=O)N12.[Na+]` [Preparation 21, Sodium 2-Benzylpenem-3-carboxylate], the “Minimum Inhibitory Concentration (M.I.C.)” value in the assay with Str. pneumoniae A-9585 (Str. pneumoniae A9585) is 2 µg/mL; in the assay with Str. pyogenes A-9604 (Str. pyogenes A9604), 8 µg/mL; in the assay on Staph. aureus A-9537 (Staph. aureus A9537) it was “.06 µg/mL”. The MIC in assay [1] is above 63 µg/mL; in assay [2] (setting [10]), 1 µg/mL; in [3] (setting [6]), 32 µg/mL; in the assay with Str. faecalis A-20688, 32 µg/mL; in the assay with E. coli A-15119 it was 4 µg/mL; with E. coli A-20341-1, 125 µg/mL. Also, the MIC in the assay with K. pneumoniae A-15130 was 125 µg/mL; in assay [4] it was 125 µg/mL; in the assay with Pr. mirabilis A-9900 it was 1 µg/mL; with Pr. vulgaris A-9716 (setting [11]), 2 µg/mL; in the assay on Pr. morganii A-15153 it was 4 µg/mL; in the assay on Ser. marcescens A-20019 it was 63 µg/mL. Also, the MIC in the assay with Ent. cloacae A-9659 was 63 µg/mL; with Ent. cloacae A-9656 (Enterobacter cloacae A9656), 32 µg/mL; in the assay with Ps. aeruginosa A-9843A, 125 µg/mL; in the assay with Ps. aeruginosa A-21213 it was 125 µg/mL; in the assay with Proteus rettgeri A21203 (Proteus rettgeri A21203), 4 µg/mL.

As for `O=C(O)C1=C(c2cscn2)SC2CC(=O)N12` (centres unmarked) [Preparation 27, 2-(4'-Thiazolyl)penem-3-carboxylic Acid], the MIC was 0.13 µg/mL (≈ 0.511 µM) in the assay on Str. pneumoniae A-9585; 0.25 µg/mL (≈ 0.983 µM) with Str. pyogenes A-9604; 0.5 µg/mL (≈ 1.97 µM) with Staph. aureus A-9537; above 63 µg/mL in assay [1]; 8 µg/mL (≈ 31.5 µM) in assay [2] (setting [5]); 8 µg/mL (≈ 31.5 µM) in assay [3] (Staph. aureus A15097 (Meth-Res), read-out: Minimum Inhibitory Concentration (M.I.C.)). Moreover, the MIC with Str. faecalis A-20688 is 4 µg/mL (≈ 15.7 µM); with E. coli A-15119, 8 µg/mL (≈ 31.5 µM); in the assay on E. coli A-20341-1 it was 125 µg/mL (≈ 492 µM); in the assay on K. pneumoniae A-15130, 125 µg/mL (≈ 492 µM); in [4], above 125 µg/mL; in the assay on Pr. mirabilis A-9900, 4 µg/mL (≈ 15.7 µM). Further, the MIC turned out to be 4 µg/mL (≈ 15.7 µM) in the assay on Pr. vulgaris A-9716 (setting [7]); 32 µg/mL (≈ 126 µM) in the assay with Pr. morganii A-15153; 63 µg/mL (≈ 248 µM) in the assay on Ser. marcescens A-20019; 125 µg/mL (≈ 492 µM) in the assay on Ent. cloacae A-9659; 63 µg/mL (≈ 248 µM) in the assay on Ent. cloacae A-9656 (setting [8]); 125 µg/mL (≈ 492 µM) with Ps. aeruginosa A-9843A. Moreover, the values for the MIC in the assay on Ps. aeruginosa A-21213 and in the assay with Proteus rettgeri A21203 (setting [9]) were 125 µg/mL (≈ 492 µM) and 16 µg/mL (≈ 62.9 µM), respectively.

On to `CCCCC1=C(C(=O)[O-])N2C(=O)C[C@H]2S1.[Na+]` [Preparation 24, Sodium 2-butylpenem-3-carboxylate], for which the MIC is 0.25 µg/mL in the assay on Str. pneumoniae A-9585; 1 µg/mL in the assay with Str. pyogenes A-9604; 0.13 µg/mL with Staph. aureus A-9537; above 63 µg/mL in assay [1]; 4 µg/mL in [2] (setting [10]); 125 µg/mL in [3] (setting [6]). Besides, the MIC in the assay with Str. faecalis A-20688 was 63 µg/mL; in the assay on E. coli A-15119, 16 µg/mL; in the assay with E. coli A-20341-1, above 125 µg/mL; in the assay on K. pneumoniae A-15130, 63 µg/mL; in assay [4], above 125 µg/mL; in the assay with Pr. mirabilis A-9900, 2 µg/mL. Also, the MIC with Pr. vulgaris A-9716 (setting [11]) turned out to be 2 µg/mL; with Pr. morganii A-15153, 16 µg/mL; in the assay with Ser. marcescens A-20019, 32 µg/mL; with Ent. cloacae A-9659, 63 µg/mL; in the assay on Ent. cloacae A-9656 (Enterobacter cloacae A9656), 63 µg/mL; in the assay on Ps. aeruginosa A-9843A, 125 µg/mL. The figures for the MIC in the assay with Ps. aeruginosa A-21213 and in the assay with Proteus rettgeri A21203 (Proteus rettgeri A21203) were 125 µg/mL and 8 µg/mL, respectively.

Values taken from patent US4272437A, “Antibacterial agents, and 4-thio azetidinone intermediates” (priority 1979, dated 1981).
